Measurements published in patent publication US20200384116A1, “SELF-ASSEMBLING VERTEPORFIN AMPHIPHILES (SAVA) FOR LOCAL CANCER THERAPY” (THE JOHNS HOPKINS UNIVERSITY, priority 2016, published 2020).

Key:
Assay type in all cases: cell-based
[1] = tested on: SW480, PANC-1, MDA-MD-231, MDA-MD-468 and HELA cell lines; assay: MTT proliferation assay, non-CNS tumor cell lines; details: 12.5 μM, 5 or 6 days, in words
Protocol: (§1) Cells tested were subjected to the following protocol: Day 1: 7000 cells per well were seeded in a 96-well plate. Day 3: cells were treated with 12.5 μM of Verteporfin (treatment group) and its equivalent DMSO concentration (control group) in 200 μl of media/well. Proliferation was assessed using MTT at Day 8, 9 using the following method:
(§2) MTT stock solution (5 mg/ml) is added to each culture being assayed to equal one-tenth the original culture volume and incubated for 4 hr. At the end of the incubation period the medium is removed the converted dye is solubilized with 100% isopropanol. Absorbance of converted dye is measured at a wavelength of 570 nm.
The cell lines SW480 (colon adenocarcinoma), PANC-1 (pancreatic cancer), MDA-MD-231 (breast adenocarcinoma), MDA-MD-468 (metastatic breast carcinoma triple negative), and HELA (cervical carcinoma) were treated with 12.5 μM of the SAVA composition, Ver-RGDR, or DMSO (solvent control) for 5 days (FIG. 5a) or 6 days (FIG. 5b) in culture. Cell proliferation was then assessed using the MTT protocol. […] P-values: All cell lines tested at day 5 and 6 had p<0.0001 compared to their corresponding DMSO control. The results were statistically significant.

[2] = tested on: malignant meningioma cell line KT21-MG1; assay: MTT cell survival, KT21-MG1
Protocol: (§3) Cells tested were subjected to the following protocol: Day 1: 7000 cells per well were seeded in a 96-well plate. […]
as §2
(§4) The malignant meningioma cell lines KT21-MG1 (FIG. 7), IOMM-Lee (FIG. 8), the primary patient-derived GBM cell lines, JHGB612 and GBM1A, and a patient-derived primary chordoma cell line, JHC7 (FIG. 9) were all tested with a SAVA composition of the present invention, using the protocol of Example 3. All should significant dose-dependent effect on cell survival when compared to controls.

[3] = tested on: malignant meningioma cell line IOMM-Lee; assay: MTT cell survival, IOMM-Lee
Protocol: as §3, §2, §4

[4] = tested on: primary patient-derived GBM cell line JHGB612; assay: MTT cell survival, JHGB612; details: dose-dependent, vs controls
Protocol: as §1, §2, §4

[5] = tested on: primary patient-derived GBM cell line GBM1A; assay: MTT cell survival, GBM1A; details: dose-dependent, vs controls
Protocol: as §1, §2, §4

[6] = tested on: patient-derived primary chordoma cell line JHC7; assay: MTT cell survival, JHC7; details: dose-dependent, vs controls
Protocol: as §1, §2, §4

For verteporfin, which “proliferation of non-CNS tumor cells” value [1] is on record?
The value was “decreases proliferation”.

What about the cell survival ([2]; 3 days of treatment) of the same substance?
The cell survival was “decreases cell survival”.

What about the cell survival ([2]; 5 days of treatment) of the same substance?
The cell survival was “decreases cell survival”.

What about the cell survival ([3]; 3 days of treatment) of the same substance?
The cell survival was “decreases cell survival”.

And the cell survival ([3]; 5 days of treatment)?
The cell survival was “decreases cell survival”.

And the “effect on proliferation and cell survival” value [4]?
Its value is “profound dose dependent effect on glioblastoma proliferation and cell survival”.

And the “effect on proliferation and cell survival” value [5]?
The value was “profound dose dependent effect on glioblastoma proliferation and cell survival”.

And the “effect on cell survival and proliferation” value [6]?
The value was “dose dependent effect on chordoma cell survival and proliferation”.
